Test results as given in patent publication US20090269798A1, “METHOD AND SYSTEM FOR SELECTING CHEMOTHERAPEUTIC AGENTS” (UNIVERSITY OF NORTHERN IOWA RESEARCH FOUNDATION, priority 2008, published 2009).
Like-named read-outs stand apart in the source and are kept apart here. Marks after values point to notes of the source that are not given here.

Legend:
[1] = test system: Jurkat (human T lymphocytic leukemia); details: 96 hours, ± standard deviation
Description: (§1) In the experiments shown in Table1 a/b, the indicated concentrations of hydrogen peroxide were added to the various types of cells and they were incubated for 96 hours until growth was measured by the ^3H-thymidine assay or viability determined by the 3-(4,5-diphenylthiazol-2-yl)-2,5-diphenyltetrazolium bromide (“MTT”) assay. Numbers represent triplicate or quadruplicate determinations.

[2] = test system: K-562 (human erythroleukemia); details: 96 hours, ± standard deviation
Description: as §1

Normal cells = details: 96 hours, ± standard deviation
Description: as §1

[3] = test system: THP-1 (human monocytic leukemia); details: 96 hours, ± standard deviation
Description: as §1

[4] = test system: YT-INDY (human NK cell leukemia); details: 96 hours, ± standard deviation
Description: as §1

Jurkat cells = details: four-hour exposure, 25 μM H2O2

`OO` [Hydrogen Peroxide, hydrogen peroxide] was tested. Which “amount of cell division remaining (compared to control cells without hydrogen peroxide)” value ([1]; 25 μM hydrogen peroxide) did it give?
Its value is 1.2 ± 0.4.

And the “amount of cell division remaining (compared to control cells without hydrogen peroxide)” value ([1]; 50 μM hydrogen peroxide)?
The value was 2.4 ± 1.1.

What about the “amount of cell division remaining (compared to control cells without hydrogen peroxide)” value ([1]; 100 μM hydrogen peroxide) of the same compound?
Its value is 1.3 ± 1.1.

And the “amount of cell division remaining (compared to control cells without hydrogen peroxide)” value ([1]; 200 μM hydrogen peroxide)?
The value was 1.0 ± 0.2.

And the “amount of cell division remaining (compared to control cells without hydrogen peroxide)” value ([2]; 25 μM hydrogen peroxide)?
The value was 41.6 ± 24.5.

And the “level of live cells remaining (compared to control cells without hydrogen peroxide)” value ([2]; 25 μM hydrogen peroxide)?
The value was 58.6 ± 3.2.

And the “amount of cell division remaining (compared to control cells without hydrogen peroxide)” value ([2]; 50 μM hydrogen peroxide)?
Its value is 7.1 ± 5.1.

What about the “level of live cells remaining (compared to control cells without hydrogen peroxide)” value ([2]; 50 μM hydrogen peroxide) of the same compound?
Its value is 19.6 ± 1.2.

And the “amount of cell division remaining (compared to control cells without hydrogen peroxide)” value ([2]; 100 μM hydrogen peroxide)?
Its value is 4.3 ± 2.6.

What about the “level of live cells remaining (compared to control cells without hydrogen peroxide)” value ([2]; 100 μM hydrogen peroxide) of the same compound?
Its value is 8.9 ± 0.2.

And the “amount of cell division remaining (compared to control cells without hydrogen peroxide)” value ([2]; 200 μM hydrogen peroxide)?
The value was 2.7 ± 0.3.

What about the “level of live cells remaining (compared to control cells without hydrogen peroxide)” value ([2]; 200 μM hydrogen peroxide) of the same compound?
Its value is 8.0 ± 0.4.

What about the “amount of cell division remaining (compared to control cells without hydrogen peroxide)” value (Normal cells; 25 μM hydrogen peroxide) of the same compound?
Its value is 68.2 ± 5.4^b.

And the “level of live cells remaining (compared to control cells without hydrogen peroxide)” value (Normal cells; 25 μM hydrogen peroxide)?
The value was 100.6 ± 3.3^b.

And the “amount of cell division remaining (compared to control cells without hydrogen peroxide)” value (Normal cells; 50 μM hydrogen peroxide)?
The value was 84.4 ± 12.3.

What about the “level of live cells remaining (compared to control cells without hydrogen peroxide)” value (Normal cells; 50 μM hydrogen peroxide) of the same compound?
The value was 102.7 ± 5.5.

And the “amount of cell division remaining (compared to control cells without hydrogen peroxide)” value (Normal cells; 100 μM hydrogen peroxide)?
The value was 92.5 ± 19.9.

What about the “level of live cells remaining (compared to control cells without hydrogen peroxide)” value (Normal cells; 100 μM hydrogen peroxide) of the same compound?
Its value is 89.4 ± 0.9.

What about the “amount of cell division remaining (compared to control cells without hydrogen peroxide)” value (Normal cells; 200 μM hydrogen peroxide) of the same compound?
Its value is 81.9 ± 9.2.

What about the “level of live cells remaining (compared to control cells without hydrogen peroxide)” value (Normal cells; 200 μM hydrogen peroxide) of the same compound?
The value was 83.0 ± 1.8.

And the “amount of cell division remaining (compared to control cells without hydrogen peroxide)” value ([3]; 25 μM hydrogen peroxide)?
The value was 115.8 ± 10.6.

And the “level of live cells remaining (compared to control cells without hydrogen peroxide)” value ([3]; 25 μM hydrogen peroxide)?
Its value is 103.0 ± 2.2.

What about the “amount of cell division remaining (compared to control cells without hydrogen peroxide)” value ([3]; 50 μM hydrogen peroxide) of the same compound?
The value was 102.8 ± 5.9.

And the “level of live cells remaining (compared to control cells without hydrogen peroxide)” value ([3]; 50 μM hydrogen peroxide)?
Its value is 101.8 ± 1.8.

And the “amount of cell division remaining (compared to control cells without hydrogen peroxide)” value ([3]; 100 μM hydrogen peroxide)?
The value was 91.0 ± 0.2.

And the “level of live cells remaining (compared to control cells without hydrogen peroxide)” value ([3]; 100 μM hydrogen peroxide)?
The value was 95.6 ± 0.6.

What about the “amount of cell division remaining (compared to control cells without hydrogen peroxide)” value ([3]; 200 μM hydrogen peroxide) of the same compound?
The value was 63.2 ± 7.1.

And the “level of live cells remaining (compared to control cells without hydrogen peroxide)” value ([3]; 200 μM hydrogen peroxide)?
The value was 65.6 ± 2.0.

And the “amount of cell division remaining (compared to control cells without hydrogen peroxide)” value ([4]; 25 μM hydrogen peroxide)?
Its value is 109.2 ± 2.4.

And the “level of live cells remaining (compared to control cells without hydrogen peroxide)” value ([4]; 25 μM hydrogen peroxide)?
The value was 68.2 ± 4.8.

What about the “amount of cell division remaining (compared to control cells without hydrogen peroxide)” value ([4]; 50 μM hydrogen peroxide) of the same compound?
Its value is 2.8 ± 0.8.

What about the “level of live cells remaining (compared to control cells without hydrogen peroxide)” value ([4]; 50 μM hydrogen peroxide) of the same compound?
Its value is 32.1 ± 2.6.

What about the “amount of cell division remaining (compared to control cells without hydrogen peroxide)” value ([4]; 100 μM hydrogen peroxide) of the same compound?
The value was 3.7 ± 2.5.

What about the “level of live cells remaining (compared to control cells without hydrogen peroxide)” value ([4]; 100 μM hydrogen peroxide) of the same compound?
Its value is 29.7 ± 1.0.

And the “amount of cell division remaining (compared to control cells without hydrogen peroxide)” value ([4]; 200 μM hydrogen peroxide)?
The value was 10.2 ± 3.5.

What about the “level of live cells remaining (compared to control cells without hydrogen peroxide)” value ([4]; 200 μM hydrogen peroxide) of the same compound?
Its value is 27.5 ± 0.5.

What about the “killing of Jurkat cells” value (Jurkat cells) of the same compound?
The value was “significant killing”.
